Reference: patent US8536187B2 (Gilead Sciences, Inc., priority 2008, dated 2013)

Columns and labels:
[1] = CC50 assay (CellTiter-Glo) in Huh-7 HCV replicon cells; type: cell-based; settings: human
Method: (§1) The anti-HCV activity of the pyrido[3,2-d]pyrimidine derivatives of this invention was tested in a human hepatoma Huh-7 cell line harboring a HCV replicon. The assay comprised the following steps: • Step 1: compound preparation and serial dilution: serial dilution is performed in 50% DMSO in a 384-well plate. A solution containing a compound at 100-fold concentration of the starting final serial dilution concentration was prepared in 50% DMSO and added to the pre-specified wells in column 1 of a polypropylene 384-well plate. The plate was then placed on a Precision 2000 Workstation to start the serial dilution. After the serial dilution, a volume of 2 μL of the solution was transferred from the 384-well plate to a 96-well cell culture plate containing 100 μL of cell media on a Biomek FX Workstation. The DMSO concentration in the final assay condition was 0.5% after cells are added to the plate and the total volume in each well is brought to 200 μL. • Step 2: to each well of the serial dilution plate prepared above, 100 μL of cell media containing 6000 suspended Huh-7 HCV replicon cells was added with a Multidrop workstation. The plates were incubated for 3 days at 37° C. with 5% CO2. • Step 3: detection: • a) for the EC50 assay, the media in a 96-well cell culture plate was aspirated with a Biotek EL405 plate-washer. A volume of 200 μL of a solution containing a 1:1 mixture of cell-lysis buffer (Promega, Luciferase Cell Culture Lysis 5× Reagent, cat. #E1531) and luciferase substrate solution (Promega, Luciferase Assay, cat.# E4550) was added to each well of the plate with Multidrop. The plate was incubated for 30 minutes at room temperature before the luminescence signal was measured with a TopCount plate-reader. • b) for the CC50 assay, a volume of 100 μL of pre-mixed CellTiter-Glo (Promega, cat.# G7572) solution is added directly to the cell culture in each well of the plate and the luminescence signal is measured with a TopCount plate-reader after 10 minutes of incubation at room temperature.

[2] = system: HCV replicon in human hepatoma Huh-7 cell line; assay: Anti-HCV replicon assay, EC50 (luciferase luminescence); type: cell-based; settings: Hepatitis C virus, Huh-7, 72 h
Method: as §1

SMILES	CC50 at 3 days ([1]; Table 1, 3 days incubation)	EC50 [2]	CC50 at 3 days ([1]; Table 2, 3 days incubation)
Fc1ccc(-c2ccc3nc(NCc4cccc(-n5cncn5)c4)nc(NCC(F)(F)F)c3n2)cc1 [Example 1, 6-(4-Fluoro-phenyl)-N2-(3-[1,2,4]-triazol-1-yl-benzyl)-N4-(2,2,2-trifluoro-ethyl)-pyrido[3,2-d]pyrimidine-2,4-diamine]	> 25000 nM	100 to 250 nM	
FC(F)(F)C1(Nc2nc(NCc3cccc(-n4cncn4)c3)nc3ccc(-c4ccc(NC5CC5)nc4)nc23)CC1 [Example 70, N^2-(3-(1H-1,2,4-triazol-1-yl)benzyl)-6-(6-(cyclopropylamino)pyridin-3-yl)-N^4-(1-(trifluoromethyl)cyclopropyl) pyrido[3,2-d]pyrimidine-2,4-diamine]		< 100 nM	> 10000 nM
Cc1ccc(-c2ccc3nc(NCc4ccc(S(N)(=O)=O)cc4)nc(NC4(C(F)(F)F)CC4)c3n2)cc1S(C)(=O)=O [Example 29, 4-{[6-(3-methanesulfonyl-4-methylphenyl)-4-(1-trifluoromethyl-cyclopropylamino)-pyrido[3,2-d]pyrimidin-2-ylamino]-methyl}-benzenesulfonamide]		< 100 nM	1000 to 10000 nM
NS(=O)(=O)c1cc(Cl)cc(CNc2nc(NCC(F)(F)F)c3nc(C#CC4CC4)ccc3n2)c1 [Example 280, 3-chloro-5-((6-(2-cyclopropyl-ethynyl)-4-(2,2,2-trifluoro-ethylamino)pyrido[3,2-d]pyrimidin-2-ylamino)methyl) benzenesulfonamide]		< 100 nM	> 10000 nM
NS(=O)(=O)c1cccc(CNc2nc(NC3(C(F)(F)F)CC3)c3nc(-c4ccc(F)cc4)ccc3n2)c1 [Example 116, 3-((6-(4-fluorophenyl)-4-(1-(trifluoromethyl)cyclopropyl-amino)pyrido[3,2-d]pyrimidin-2-ylamino)methyl)benzene-sulfonamide]		< 100 nM	> 10000 nM
CCOc1ccc(-c2ccc3nc(NCc4cc(Cl)cc(S(N)(=O)=O)c4)nc(NCC(F)(F)F)c3n2)cn1 [Example 233, 3-chloro-5-((6-(6-ethoxypyridin-3-yl)-4-(2,2,2-trifluoroethylamino)pyrido [3,2-d]pyrimidin-2-ylamino)methyl)benzenesulfonamide]		< 100 nM	1000 to 10000 nM
COc1ccc(-c2ccc3nc(NCc4cccc(-n5cncn5)c4)nc(NC4(C(F)(F)F)CC4)c3n2)cc1S(C)(=O)=O [Example 39, N^2-(3-(1H-1,2,4-triazol-1-yl)benzyl)-6-(4-methoxy-3-(methylsulfonyl)phenyl)-N^4-(1-(trifluoromethyl)cyclopropyl) pyrido[3,2-d]pyrimidine-2,4-diamine]		< 100 nM	> 10000 nM
NS(=O)(=O)c1cc(CNc2nc(NCC(F)(F)F)c3nc(-c4ccc(F)cc4)ccc3n2)ccc1F [Example 7, 2-Fluoro-5-{[6-(4-fluoro-phenyl)-4-(2,2,2-trifluoro-ethylamino)-pyrido[3,2-d]pyrimidin-2-ylamino]-methyl}-benzenesulfonamide]	10000 to 25000 nM	< 100 nM	
COc1ccc(-c2ccc3nc(NCCS(N)(=O)=O)nc(NC4(C(F)(F)F)CC4)c3n2)cc1S(C)(=O)=O [Example 93, 2-(6-(4-methoxy-3-(methylsulfonyl)phenyl)-4-(1-(trifluoromethyl)cyclopropyl-amino)pyrido[3,2-d]pyrimidin-2-ylamino)ethanesulfonamide]		< 100 nM	1000 to 10000 nM
NS(=O)(=O)c1ccc(CNc2nc(NCC(F)(F)F)c3nc(-c4ccc(F)cc4)ccc3n2)cc1F [Example 3, 2-Fluoro-4-{[6-(4-fluoro-phenyl)-4-(2,2,2-trifluoro-ethylamino)-pyrido[3,2-d]pyrimidin-2-ylamino]-methyl}-benzenesulfonamide]	> 25000 nM	250 to 2000 nM	
COc1ccc(-c2ccc3nc(NCc4ccc(S(N)(=O)=O)cc4)nc(NCC(F)(F)F)c3n2)cc1C(N)=O [Example 226, 4-((6-(3-(aminocarbonyl)l-4-methoxyphenyl)-4-(2,2,2-trifluoroethylamino)pyrido [3,2-d]pyrimidin-2-ylamino)methyl)benzene-sulfonamide]		< 100 nM	
